± gives the standard deviation of the averaged measurements.
Key:
Experiment in all cases: level (log10 ratio to DMSO vehicle control); higher = higher biomarker level / cell amount than vehicle control
Settings in all cases: in DMSO
[1] = compound: CNS(=O)(=O)C(F)(F)C(F)(F)C(F)(F)C(F)(F)C(F)(F)C(F)(F)C(F)(F)C(F)(F)F [N-Methylperfluorooctanesulfonamide]
Description: (§1)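 BioMAP Diversity Plus panel of 12 human primary cell co-culture systems (3C, 4H, LPS, SAg, BT, BF4T, BE3C, CASM3C, HDF3CGF, KF3CT, MyoF, Mphg). Compounds were added 1 h before stimulation and left for 24 h (MyoF 48 h; BT 72 h for soluble read-outs or 6 d for IgG). Biomarkers were read by ELISA, cytotoxicity by SRB, PBMC viability and proliferation by Alamar Blue. Each well value was divided by the mean of 8 DMSO control wells on the same plate and log10 transformed; duplicate blinded samples were tested at 4 concentrations.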

[2] = compound: CCCCCCCCC(F)(F)C(F)(F)C(F)(F)C(F)(F)C(F)(F)C(F)(F)F [1-(Perfluorohexyl)octane]
Description: as §1

[3] = compound: OCC(F)(F)C(F)(F)C(F)(F)C(F)(F)C(F)(F)C(F)F [1H,1H,7H-Dodecafluoro-1-heptanol]
Description: as §1

[4] = compound: FC(F)(F)C(F)(F)C(F)(F)C(F)(F)C(F)(F)C(F)(F)C(F)(F)CCI [1-Iodo-1H,1H,2H,2H-perfluorononane]
Description: as §1

[5] = compound: O=S(=O)(O)C(F)(F)C(F)(F)C(F)(F)C(F)(F)C(F)(F)C(F)(F)C(F)(F)C(F)(F)F [Perfluorooctanesulfonic acid]
Description: as §1

[6] = compound: O=C(O)CCC(F)(F)C(F)(F)C(F)(F)F [3:3 Fluorotelomer carboxylic acid]
Description: as §1

[7] = compound: O=C(O)C(F)(F)C(F)(F)C(F)(F)C(F)(F)C(F)(F)F [Perfluorohexanoic acid]
Description: as §1

| Test System | level (log10) ([1]; 6700 nM) | level (log10) ([1]; 20000 nM) | level (log10) ([1]; 60000 nM) | level (log10) ([2]; 6700 nM) | level (log10) ([2]; 20000 nM) | level (log10) ([3]; 6700 nM) | level (log10) ([3]; 20000 nM) | level (log10) ([3]; 60000 nM) | level (log10) ([4]; 6700 nM) | level (log10) ([4]; 20000 nM) | level (log10) ([5]; 6700 nM) | level (log10) ([5]; 20000 nM) | level (log10) ([5]; 60000 nM) | level (log10) ([6]; 6700 nM) | level (log10) ([6]; 20000 nM) | level (log10) ([6]; 60000 nM) | level (log10) ([7]; 6700 nM) | level (log10) ([7]; 20000 nM) | level (log10) ([7]; 60000 nM) |
| --- | --- | --- | --- | --- | --- | --- | --- | --- | --- | --- | --- | --- | --- | --- | --- | --- | --- | --- | --- |
| HDF3CGF:SRB | -0.032 ± 0.03 | 0.005 ± 0.023 | -0.008 ± 0.014 | 0.0105 ± 0.11 | 0.022 ± 0.057 | -0.0345 ± 0.033 | -0.007 ± 0.05 | -0.0055 ± 0.057 | 0.016 ± 0.045 | -0.052 ± 0.071 | 0.008 ± 0.037 | -0.009 ± 0.027 | -0.0365 ± 0.035 | 0.029 ± 0.061 | 0.0105 ± 0.0078 | 0.011 ± 0.05 | 0.0135 ± 0.013 | 0.0305 ± 0.022 | -0.0055 ± 0.0092 |
| HDF3CGF:CD54/ICAM-1 | -0.002 ± 0.0028 | -0.0075 ± 0.019 | -0.0845 ± 0.0035 | 0.0025 ± 0.005 | -0.0055 ± 0.037 | 0.006 ± 0.0085 | 0.0015 ± 0.012 | -0.003 ± 0.0099 | -0.0105 ± 0.016 | 0.0095 ± 0.0035 | -0.025 ± 0.013 | -0.0105 ± 0.00071 | -0.033 ± 0.014 | -0.0025 ± 0.0078 | -0.0135 ± 0.015 | -0.017 ± 0.0028 | -0.009 ± 0.013 | -0.017 ± 0.013 | -0.019 ± 0.037 |
| MyoF:CD106/VCAM-1 | 0.0065 ± 0.0078 | -0.0035 ± 0.016 | -0.0155 ± 0.012 | -0.0085 ± 0.005 | -0.027 ± 0.033 | -0.014 ± 0.021 | -0.0115 ± 0.0092 | -0.019 ± 0.016 | -0.007 ± 0.023 | -0.003 ± 0.0014 | 0.0055 ± 0.0021 | 0.0085 ± 0.016 | 0.0165 ± 0.023 | -0.0005 ± 0.012 | -0.016 ± 0.0085 | -0.013 ± 0.0085 | 0.002 ± 0.0057 | 0.002 ± 0.0071 | -0.0095 ± 0.013 |
| lMphg:CXCL8/IL-8 | -0.0025 ± 0.0078 | 0.112 ± 0.022 | 0.118 ± 0.044 | -0.0215 ± 0.0078 | 0.022 ± 0.02 | -0.003 ± 0.013 | 0.017 ± 0.025 | 0.042 ± 0.028 | 0.007 ± 0.013 | 0.0695 ± 0.0078 | -0.0385 ± 0.018 | -0.003 ± 0.025 | 0.0585 ± 0.1 | -0.0215 ± 0.059 | -0.001 ± 0.051 | 0.025 ± 0.02 | 0.045 ± 0.024 | 0.0515 ± 0.036 | 0.074 ± 0.023 |
| CASM3C:CD87/uPAR | -0.0035 ± 0.0064 | -0.0255 ± 0.022 | -0.0495 ± 0.013 | -0.0175 ± 0.0078 | -0.005 ± 0.011 | -0.001 ± 0.016 | 0.0035 ± 0.021 | -0.0055 ± 0.023 | -0.0105 ± 0.028 | -0.013 ± 0.028 | -0.0005 ± 0.0078 | -0.0085 ± 0.015 | -0.016 ± 0.016 | -0.01 ± 0.0071 | 0.002 ± 0.011 | -0.01 ± 0.018 | -0.003 ± 0.027 | 0.0085 ± 0.022 | -0.012 ± 0.0014 |
| CASM3C:CD106/VCAM-1 | -0.088 ± 0.044 | -0.14 ± 0.061 | -0.0895 ± 0.06 | -0.023 ± 0.0014 | -0.0115 ± 0.021 | -0.0025 ± 0.022 | -0.017 ± 0.0057 | -0.017 ± 0.024 | -0.019 ± 0.0099 | -0.0645 ± 0.012 | -0.035 ± 0.0028 | -0.038 ± 0.016 | -0.104 ± 0.041 | -0.0255 ± 0.0035 | -0.03 ± 0.0057 | -0.0295 ± 0.015 | -0.013 ± 0.011 | -0.002 ± 0.014 | -0.029 ± 0.018 |
| lMphg:SRB-Mphg | 0.0005 ± 0.0035 | 0 ± 0.0042 | -0.018 ± 0.02 | -0.007 ± 0.013 | 0.0305 ± 0.019 | -0.028 ± 0.095 | -0.046 ± 0.0085 | 0.0615 ± 0.052 | 0.001 ± 0.03 | 0.001 ± 0.011 | -0.0005 ± 0.021 | 0.007 ± 0.0071 | 0.0055 ± 0.0035 | -0.019 ± 0.13 | -0.047 ± 0.1 | -0.048 ± 0.12 | -0.0005 ± 0.011 | 0.003 ± 0.0071 | 0.0115 ± 0.0035 |
| lMphg:CCL3/MIP-1alpha | -0.023 ± 0.0014 | 0.0105 ± 0.029 | 0.034 ± 0.033 | -0.022 ± 0.021 | 0.0035 ± 0.021 | 0.0185 ± 0.063 | 0.0115 ± 0.019 | 0.044 ± 0.0085 | -0.001 | 0.045 ± 0.033 | -0.0225 ± 0.011 | -0.007 | -0.0035 ± 0.0078 | -0.0105 ± 0.047 | -0.027 ± 0.047 | 0.002 ± 0.02 | 0.006 | -0.009 ± 0.011 | 0.0025 ± 0.011 |
| CASM3C:CXCL8/IL-8 | -0.003 ± 0.017 | 0.012 ± 0.025 | 0.035 ± 0.021 | -0.001 ± 0.017 | 0.006 ± 0.0099 | 0.0055 ± 0.012 | 0.005 ± 0.013 | 0.0055 ± 0.00071 | 0.004 ± 0.0042 | 0.004 ± 0.0028 | 0.001 ± 0.038 | 0.0045 ± 0.025 | 0.0485 ± 0.0021 | -0.0025 ± 0.0021 | -0.008 ± 0.0014 | 0.0085 ± 0.022 | 0.0005 ± 0.021 | 0.007 ± 0.0099 | 0.0265 ± 0.028 |
| MyoF:SRB | -0.005 ± 0.0099 | -0.0085 ± 0.012 | -0.0065 ± 0.022 | 0.011 ± 0.016 | 0.006 ± 0.0042 | 0.001 ± 0.0085 | -0.0025 ± 0.00071 | -0.007 ± 0.0085 | 0.016 ± 0.0014 | 0.0325 ± 0.0021 | -0.0045 ± 0.00071 | -0.0155 ± 0.00071 | -0.0185 ± 0.019 | 0.0005 ± 0.0021 | 0 ± 0.0028 | -0.0065 ± 0.012 | 0.009 ± 0.0014 | 0.008 ± 0.0085 | 0.007 ± 0.0057 |
| KF3CT:CCL2/MCP-1 | 0.029 ± 0.017 | -0.01 ± 0.014 | -0.0185 ± 0.005 | 0.0005 ± 0.023 | 0.036 ± 0.033 | -0.0055 ± 0.021 | -0.0155 ± 0.015 | 0.004 ± 0.028 | 0.01 ± 0.03 | 0.0795 ± 0.07 | -0.044 ± 0.017 | -0.0205 ± 0.0078 | 0.0005 ± 0.00071 | -0.005 ± 0.025 | -0.0135 ± 0.016 | 0.0225 ± 0.046 | -0.0155 ± 0.019 | -0.0385 ± 0.018 | 0.001 ± 0.052 |
| CASM3C:PAI-I | 0.011 ± 0.0042 | 0.0075 ± 0.012 | 0.0085 ± 0.012 | -0.011 ± 0.0014 | 0.0035 ± 0.0078 | 0.004 ± 0.0057 | -0.0005 ± 0.0064 | 0.0045 ± 0.011 | 0.0015 ± 0.00071 | 0.0035 ± 0.00071 | -0.001 ± 0.0071 | 0 ± 0.0014 | 0.0095 ± 0.0021 | -0.002 ± 0.0057 | -0.0035 ± 0.00071 | 0.009 ± 0.0014 | 0.0005 ± 0.005 | -0.003 ± 0.0042 | 0.0095 ± 0.005 |
